In patent publication US11020399B2, “Intermediates useful in the synthesis of compounds as modulators of protein kinases” (Rhizen Pharmaceuticals SA, priority 2011, dated 2021):

Experiments:
PI3kα = PI3kα (Homo sapiens, UniProt P42336); assay: Fluorescent (HTRF) determination of PI3 kinase enzyme activity, PI3Kα; assay type: biochemical; details: 1 uM
How it was run: (§1)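 Compounds tested at 1 μM on α and β isoforms and at 0.3 or 0.1 μM on γ and δ, with percent inhibition from blank and enzyme controls, plus IC50 fits. Room-temperature reaction: 10 min enzyme–compound preincubation in MgCl2/DTT buffer with 1.38 μM PIP2, then 30 min after 400 μM ATP addition; PIP3 read by HTRF (665/620 nm).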

PI3kβ = PI3kβ (Homo sapiens, UniProt P42338); assay: Fluorescent (HTRF) determination of PI3 kinase enzyme activity, PI3Kβ; assay type: biochemical; details: 1 uM
How it was run: as §1

PI3kγ = PI3kγ (Homo sapiens, UniProt P48736); assay: Fluorescent (HTRF) determination of PI3 kinase enzyme activity, PI3Kγ; assay type: biochemical; details: for inhibition at 0.3 µM: 300 nM (Examples 1-59)
How it was run: as §1

PI3kδ = PI3kδ (Homo sapiens, UniProt O00329); assay: Fluorescent (HTRF) determination of PI3 kinase enzyme activity, PI3Kδ; assay type: biochemical; details: for inhibition at 0.3 µM: 300 nM (Examples 1-59)
How it was run: as §1

[1] = 100 nM (Examples 60-137), 0.1 µM

Sequence of PI3kα (P42336 whole entry, canonical isoform): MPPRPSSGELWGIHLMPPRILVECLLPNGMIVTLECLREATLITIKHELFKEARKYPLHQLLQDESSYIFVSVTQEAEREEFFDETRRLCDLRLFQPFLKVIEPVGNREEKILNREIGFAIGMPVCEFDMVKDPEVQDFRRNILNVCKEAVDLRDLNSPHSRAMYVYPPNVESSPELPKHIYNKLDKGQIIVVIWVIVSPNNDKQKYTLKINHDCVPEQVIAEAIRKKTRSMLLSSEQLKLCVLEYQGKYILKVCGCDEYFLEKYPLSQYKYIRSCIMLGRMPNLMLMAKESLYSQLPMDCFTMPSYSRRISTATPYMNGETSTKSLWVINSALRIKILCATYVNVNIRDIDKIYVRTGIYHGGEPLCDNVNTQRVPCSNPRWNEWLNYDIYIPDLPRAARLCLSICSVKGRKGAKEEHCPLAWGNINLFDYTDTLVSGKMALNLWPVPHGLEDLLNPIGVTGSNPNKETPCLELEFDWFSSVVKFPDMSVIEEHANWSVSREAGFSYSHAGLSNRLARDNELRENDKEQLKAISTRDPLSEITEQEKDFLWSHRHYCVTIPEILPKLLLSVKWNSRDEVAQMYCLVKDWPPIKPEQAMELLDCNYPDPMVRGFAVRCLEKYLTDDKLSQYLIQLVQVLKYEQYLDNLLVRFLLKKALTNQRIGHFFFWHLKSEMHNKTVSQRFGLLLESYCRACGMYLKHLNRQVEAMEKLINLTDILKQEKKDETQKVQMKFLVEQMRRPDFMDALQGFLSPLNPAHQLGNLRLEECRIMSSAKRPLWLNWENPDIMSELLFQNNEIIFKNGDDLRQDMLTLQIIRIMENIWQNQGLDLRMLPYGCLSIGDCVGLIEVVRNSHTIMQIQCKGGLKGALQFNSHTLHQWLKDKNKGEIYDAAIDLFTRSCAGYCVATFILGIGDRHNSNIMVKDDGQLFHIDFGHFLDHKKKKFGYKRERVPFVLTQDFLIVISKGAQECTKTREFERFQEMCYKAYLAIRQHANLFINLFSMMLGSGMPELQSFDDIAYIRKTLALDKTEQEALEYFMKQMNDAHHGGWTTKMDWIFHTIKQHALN
Sequence of PI3kα (P27986 whole entry partner, canonical isoform): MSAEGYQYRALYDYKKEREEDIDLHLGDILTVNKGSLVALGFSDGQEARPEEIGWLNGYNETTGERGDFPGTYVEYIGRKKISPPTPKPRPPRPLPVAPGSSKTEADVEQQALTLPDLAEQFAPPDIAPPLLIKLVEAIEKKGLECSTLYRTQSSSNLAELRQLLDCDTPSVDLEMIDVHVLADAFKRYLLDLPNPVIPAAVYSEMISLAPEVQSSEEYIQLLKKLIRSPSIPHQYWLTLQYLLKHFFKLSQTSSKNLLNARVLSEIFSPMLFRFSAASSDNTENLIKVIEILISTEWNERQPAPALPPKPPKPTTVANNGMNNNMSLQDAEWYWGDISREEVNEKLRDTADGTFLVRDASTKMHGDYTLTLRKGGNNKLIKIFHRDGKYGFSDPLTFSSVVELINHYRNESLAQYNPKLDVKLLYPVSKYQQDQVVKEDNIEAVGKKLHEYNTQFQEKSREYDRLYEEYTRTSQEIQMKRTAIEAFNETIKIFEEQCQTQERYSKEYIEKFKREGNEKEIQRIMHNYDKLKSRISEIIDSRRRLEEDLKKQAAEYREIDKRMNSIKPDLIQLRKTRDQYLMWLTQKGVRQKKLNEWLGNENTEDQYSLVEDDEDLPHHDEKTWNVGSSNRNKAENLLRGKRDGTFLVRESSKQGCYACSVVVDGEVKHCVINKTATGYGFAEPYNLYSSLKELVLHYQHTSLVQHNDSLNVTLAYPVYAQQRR
Sequence of PI3kδ (O00329 whole entry): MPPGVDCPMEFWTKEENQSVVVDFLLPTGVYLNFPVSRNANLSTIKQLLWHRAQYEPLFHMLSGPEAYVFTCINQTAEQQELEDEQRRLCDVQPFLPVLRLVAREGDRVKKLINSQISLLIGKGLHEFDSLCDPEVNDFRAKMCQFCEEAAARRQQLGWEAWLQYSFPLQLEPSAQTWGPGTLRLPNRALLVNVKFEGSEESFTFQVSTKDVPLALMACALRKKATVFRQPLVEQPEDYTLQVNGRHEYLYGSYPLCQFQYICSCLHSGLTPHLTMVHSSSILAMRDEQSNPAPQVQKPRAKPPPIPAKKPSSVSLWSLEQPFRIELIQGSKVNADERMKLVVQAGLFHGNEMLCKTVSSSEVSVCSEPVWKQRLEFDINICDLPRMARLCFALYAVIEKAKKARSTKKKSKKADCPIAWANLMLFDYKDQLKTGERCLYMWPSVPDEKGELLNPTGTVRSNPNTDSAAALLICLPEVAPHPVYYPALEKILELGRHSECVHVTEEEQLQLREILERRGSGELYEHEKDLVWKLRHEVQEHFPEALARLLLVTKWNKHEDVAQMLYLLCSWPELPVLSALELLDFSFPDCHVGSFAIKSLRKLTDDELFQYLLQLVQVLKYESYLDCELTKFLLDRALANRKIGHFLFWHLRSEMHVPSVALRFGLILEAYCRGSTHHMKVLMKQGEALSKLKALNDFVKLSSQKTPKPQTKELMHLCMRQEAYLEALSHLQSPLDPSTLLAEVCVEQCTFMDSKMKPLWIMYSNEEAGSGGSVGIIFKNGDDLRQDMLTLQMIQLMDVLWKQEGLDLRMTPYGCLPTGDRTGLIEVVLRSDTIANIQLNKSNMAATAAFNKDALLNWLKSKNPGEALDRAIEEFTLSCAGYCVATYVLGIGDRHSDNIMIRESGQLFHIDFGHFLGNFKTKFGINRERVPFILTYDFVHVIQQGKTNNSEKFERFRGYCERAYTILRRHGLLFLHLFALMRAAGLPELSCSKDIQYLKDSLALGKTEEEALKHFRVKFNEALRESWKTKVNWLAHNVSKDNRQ
Sequence of PI3kδ (P27986 whole entry partner): as the sequence (P27986 whole entry partner, canonical isoform) above
Sequence of PI3kγ (P48736 whole entry): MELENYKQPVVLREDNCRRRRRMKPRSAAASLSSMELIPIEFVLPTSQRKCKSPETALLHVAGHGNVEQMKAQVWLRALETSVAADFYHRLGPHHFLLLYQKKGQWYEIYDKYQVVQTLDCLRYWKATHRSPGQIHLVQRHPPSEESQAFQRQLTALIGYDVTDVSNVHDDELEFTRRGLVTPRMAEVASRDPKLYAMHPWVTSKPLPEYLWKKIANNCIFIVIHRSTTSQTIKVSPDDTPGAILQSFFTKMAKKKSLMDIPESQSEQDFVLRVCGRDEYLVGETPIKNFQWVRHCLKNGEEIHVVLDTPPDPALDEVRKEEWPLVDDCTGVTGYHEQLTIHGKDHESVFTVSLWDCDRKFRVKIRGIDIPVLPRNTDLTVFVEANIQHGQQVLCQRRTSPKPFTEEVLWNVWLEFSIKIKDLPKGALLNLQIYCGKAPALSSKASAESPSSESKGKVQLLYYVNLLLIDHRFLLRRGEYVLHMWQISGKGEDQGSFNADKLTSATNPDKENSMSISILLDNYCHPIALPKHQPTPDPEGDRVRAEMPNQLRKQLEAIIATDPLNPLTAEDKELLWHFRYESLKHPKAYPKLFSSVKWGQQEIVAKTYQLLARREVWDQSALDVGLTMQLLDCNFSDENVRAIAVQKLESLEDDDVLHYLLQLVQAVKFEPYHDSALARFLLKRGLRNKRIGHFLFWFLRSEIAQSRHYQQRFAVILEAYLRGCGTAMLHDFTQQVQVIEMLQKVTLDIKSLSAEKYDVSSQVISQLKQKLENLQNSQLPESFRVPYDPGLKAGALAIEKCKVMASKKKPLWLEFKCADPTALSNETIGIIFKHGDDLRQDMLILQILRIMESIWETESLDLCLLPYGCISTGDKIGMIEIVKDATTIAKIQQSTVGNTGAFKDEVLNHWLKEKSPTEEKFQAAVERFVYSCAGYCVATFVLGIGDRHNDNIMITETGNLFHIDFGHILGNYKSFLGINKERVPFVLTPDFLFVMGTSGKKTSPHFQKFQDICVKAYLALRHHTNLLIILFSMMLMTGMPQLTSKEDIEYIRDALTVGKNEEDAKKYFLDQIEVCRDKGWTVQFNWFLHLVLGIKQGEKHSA
Sequence of PI3kβ (P42338 whole entry): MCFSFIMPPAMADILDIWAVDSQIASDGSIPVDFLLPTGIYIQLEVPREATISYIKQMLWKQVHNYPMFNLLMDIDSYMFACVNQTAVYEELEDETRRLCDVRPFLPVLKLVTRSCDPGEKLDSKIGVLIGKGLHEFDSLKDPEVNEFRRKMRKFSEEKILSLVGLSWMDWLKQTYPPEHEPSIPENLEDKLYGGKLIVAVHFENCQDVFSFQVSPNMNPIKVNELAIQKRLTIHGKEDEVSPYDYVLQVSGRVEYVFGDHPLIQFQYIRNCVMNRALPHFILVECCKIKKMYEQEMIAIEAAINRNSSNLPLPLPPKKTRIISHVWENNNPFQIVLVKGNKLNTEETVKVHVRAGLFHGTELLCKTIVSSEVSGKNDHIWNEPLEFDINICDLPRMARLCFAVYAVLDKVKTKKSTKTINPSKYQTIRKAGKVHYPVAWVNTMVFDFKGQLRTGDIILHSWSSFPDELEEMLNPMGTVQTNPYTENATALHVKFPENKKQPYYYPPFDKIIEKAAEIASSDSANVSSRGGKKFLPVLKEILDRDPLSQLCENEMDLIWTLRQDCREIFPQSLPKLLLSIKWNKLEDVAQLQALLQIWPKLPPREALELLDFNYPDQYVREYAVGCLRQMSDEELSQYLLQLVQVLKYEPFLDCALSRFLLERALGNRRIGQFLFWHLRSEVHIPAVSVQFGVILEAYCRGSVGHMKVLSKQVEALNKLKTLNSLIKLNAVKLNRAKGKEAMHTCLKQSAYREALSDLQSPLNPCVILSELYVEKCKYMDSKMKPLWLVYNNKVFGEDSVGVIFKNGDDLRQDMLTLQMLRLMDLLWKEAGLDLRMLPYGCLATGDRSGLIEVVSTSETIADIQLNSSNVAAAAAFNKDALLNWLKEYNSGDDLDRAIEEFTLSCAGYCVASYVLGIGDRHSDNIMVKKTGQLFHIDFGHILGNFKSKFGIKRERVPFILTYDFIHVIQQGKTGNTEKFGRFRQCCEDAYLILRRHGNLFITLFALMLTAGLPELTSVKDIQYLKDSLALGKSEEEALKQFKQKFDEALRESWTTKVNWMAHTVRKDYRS
Sequence of PI3kβ (P27986 whole entry partner): as the sequence (P27986 whole entry partner, canonical isoform) above

Compound | inhibition at 1 µM (PI3kα) [%] | inhibition at 1 µM (PI3kβ) [%] | inhibition at 0.3 µM (PI3kγ) [%] | inhibition at 0.3 µM (PI3kδ) [%] | melting point [°C] | IC50 (PI3kδ) [nM] | inhibition at 0.1 µM (PI3kδ; 100 nM (Examples 60-137)) [%] | inhibition at 0.1 µM (PI3kγ; 100 nM (Examples 60-137)) [%] | IC50 (PI3kγ) [nM] | % inhibition (PI3kβ) 1 uM (PI3kβ) | % inhibition (PI3kγ) 100 nM (PI3kγ; [1]) | % inhibition (PI3kδ) 100 nM (PI3kδ; [1])
CC(C)Oc1ncc(-c2nn(C(C)c3oc4cccc(F)c4c(=O)c3-c3cccc(F)c3)c3ncnc(N)c23)cn1 (stereo not shown) [Example 58, 2-(1-(4-amino-3-(2-isopropoxypyrimidin-5-yl)-1H-pyrazolo[3,4-d]pyrimidin-1-yl)ethyl)-5-fluoro-3-(3-fluorophenyl)-4H-chromen-4-one] | 0 to 25 | 50 to 75 | 25 to 50 | 50 to 75 | 230 to 232 |  |  |  |  |  |  | 
CC(Nc1ncnc2[nH]cnc12)c1oc2cccc(F)c2c(=O)c1-c1cccc(F)c1 (single isomer, unassigned; (-)) [Example 78, (−)-2-(1-(9H-purin-6-ylamino)ethyl)-5-fluoro-3-(3-fluorophenyl)-4H-chromen-4-one] | 0 to 25 | 25 to 50 |  |  | 205 to 208 | 50 to 100 | 50 to 75 |  |  |  |  | 
CC(c1oc2cccc(F)c2c(=O)c1-c1cccc(F)c1)n1nc(-c2cnc3[nH]ccc3c2)c2c(N)ncnc21 (stereo not shown) [Example 63, 2-(1-(4-amino-3-(1H-pyrrolo[2,3-b]pyridin-5-yl)-1H-pyrazolo[3,4-d]pyrimidin-1-yl)ethyl)-5-fluoro-3-(3-fluorophenyl)-4H-chromen-4-one] | 25 to 50 | 0 to 25 |  |  | 303 to 306 |  | 25 to 50 | 25 to 50 |  |  |  | 
Cc1nn(C)c2cc(-c3nn(C(C)c4oc5cccc(F)c5c(=O)c4-c4cccc(F)c4)c4ncnc(N)c34)ccc12 (stereo not shown) [Example 79, 2-(1-(4-amino-3-(1,3-dimethyl-1H-indazol-6-yl)-1H-pyrazolo[3,4-d]pyrimidin-1-yl)ethyl)-5-fluoro-3-(3-fluorophenyl)-4H-chromen-4-one] | 25 to 50 | 25 to 50 |  |  | 220 to 224 |  | 0 to 25 | 25 to 50 |  |  |  | 
CC(C)C(=O)Nc1ccc(-c2nn(C(C)c3oc4cccc(F)c4c(=O)c3-c3cccc(F)c3)c3ncnc(N)c23)cc1F (stereo not shown) [Example 81, N-(4-(4-amino-1-(1-(5-fluoro-3-(3-fluorophenyl)-4-oxo-4H-chromen-2-yl)ethyl)-1H-pyrazolo[3,4-d]pyrimidin-3-yl)-2-fluorophenyl)isobutyramide] | 25 to 50 | 25 to 50 |  |  | 249 to 252 |  | 50 to 75 | 25 to 50 |  |  |  | 
CC(c1oc2cccc(F)c2c(=O)c1-c1cccc(F)c1)n1nc(-c2ccc(-c3nnc(N)s3)cc2)c2c(N)ncnc21 (stereo not shown) [Example 77, 2-(1-(4-amino-3-(4-(5-amino-1,3,4-thiadiazol-2-yl)phenyl)-1H-pyrazolo[3,4-d]pyrimidin-1-yl)ethyl)-5-fluoro-3-(3-fluorophenyl)-4H-chromen-4-one] | 25 to 50 | 50 to 75 |  |  | 202 to 205 | 50 to 100 | 50 to 75 | 25 to 50 |  |  |  | 
CC(Nc1ncnc2[nH]cnc12)c1oc2cccc(F)c2c(=O)c1-c1cccc(F)c1 (stereo not shown) [Example 69, 2-(1-(9H-purin-6-ylamino)ethyl)-5-fluoro-3-(3-fluorophenyl)-4H-chromen-4-one] |  |  |  |  | 247 to 249 |  |  |  |  | C (C=>25 to 50%) | A (A=>75 to 100%) | B (B=>50 to 75%)
CC(C)C(=O)Nc1ccc(-c2nn(C(C)c3oc4cccc(F)c4c(=O)c3-c3cccc(F)c3)c3ncnc(N)c23)cc1 (stereo not shown) [Example 48, N-(4-(4-amino-1-(1-(5-fluoro-3-(3-fluorophenyl)-4-oxo-4H-chromen-2-yl)ethyl)-1H-pyrazolo[3,4-d]pyrimidin-3-yl)phenyl)isobutyramide] |  | 25 to 50 | 75 to 100 | 50 to 75 | 154 to 157 |  |  |  | ≤ 50 |  |  | 
CC(C)Oc1ccc(-c2nn(C(C)c3oc4cccc(F)c4c(=O)c3-c3cccc(F)c3)c3ncnc(N(C)C)c23)cc1F (stereo not shown) [Example 83, 2-(1-(4-(dimethylamino)-3-(3-fluoro-4-isopropoxyphenyl)-1H-pyrazolo[3,4-d]pyrimidin-1-yl)ethyl)-5-fluoro-3-(3-fluorophenyl)-4H-chromen-4-one] |  |  |  |  | 122 to 124 | ≤ 50 | 75 to 100 | 75 to 100 | ≤ 50 |  |  | 
COC(=O)c1ccc(-c2nn(C(C)c3oc4cccc(F)c4c(=O)c3-c3cccc(F)c3)c3ncnc(N)c23)c(F)c1 (stereo not shown) [Example 64, methyl 4-(4-amino-1-(1-(5-fluoro-3-(3-fluorophenyl)-4-oxo-4H-chromen-2-yl)ethyl)-1H-pyrazolo[3,4-d]pyrimidin-3-yl)-3-fluorobenzoate] |  | 25 to 50 |  |  | 258 to 260 |  | 50 to 75 | 25 to 50 |  |  |  | 

The next lines start with the values.

inhibition at 1 µM (PI3kα) [%] | inhibition at 1 µM (PI3kβ) [%] | inhibition at 0.3 µM (PI3kγ) [%] | inhibition at 0.3 µM (PI3kδ) [%] | melting point [°C] | IC50 (PI3kδ) [nM] | inhibition at 0.1 µM (PI3kδ; 100 nM (Examples 60-137)) [%] | inhibition at 0.1 µM (PI3kγ; 100 nM (Examples 60-137)) [%] | IC50 (PI3kγ) [nM] | % inhibition (PI3kβ) 1 uM (PI3kβ) | % inhibition (PI3kγ) 100 nM (PI3kγ; [1]) | % inhibition (PI3kδ) 100 nM (PI3kδ; [1]) | Compound
 | 25 to 50 |  |  | 198 to 200 |  | 25 to 50 | 25 to 50 |  |  |  |  | CC(c1oc2cccc(F)c2c(=O)c1-c1cccc(F)c1)n1cnc2c(N(C)C)ncnc21 (single isomer, unassigned) [Example 130]
25 to 50 | 50 to 75 |  |  | 168 to 170 | 100 to 300 | 50 to 75 | 0 to 25 |  |  |  |  | CC(C)C(=O)Nc1ccc(-c2nn(C(C)c3oc4cccc(F)c4c(=O)c3-c3cccc(F)c3)c3ncnc(N4CCOCC4)c23)cc1F (stereo not shown) [Example 87, N-(2-fluoro-4-(1-(1-(5-fluoro-3-(3-fluorophenyl)-4-oxo-4H-chromen-2-yl)ethyl)-4-morpholino-1H-pyrazolo[3,4-d]pyrimidin-3-yl)phenyl)isobutyramide]
0 to 25 |  |  |  | 199 to 201 |  | 25 to 50 |  |  |  |  |  | CC(c1oc2cccc(F)c2c(=O)c1-c1cccc(F)c1)n1cnc2c(N3CCN(C)CC3)ncnc21 (stereo not shown) [Example 125, 5-fluoro-3-(3-fluorophenyl)-2-(1-(6-(4-methylpiperazin-1-yl)-9H-purin-9-yl)ethyl)-4H-chromen-4-one]
0 to 25 |  |  |  | 165 to 167 |  | 50 to 75 | 25 to 50 | > 500 |  |  |  | CC(C)C(=O)Nc1ccc(-c2nn(C(C)c3oc4cccc(F)c4c(=O)c3-c3ccc(F)cc3)c3ncnc(N4CCOCC4)c23)cc1F (stereo not shown) [Example 86, N-(2-fluoro-4-(1-(1-(5-fluoro-3-(4-fluorophenyl)-4-oxo-4H-chromen-2-yl)ethyl)-4-morpholino-1H-pyrazolo[3,4-d]pyrimidin-3-yl)phenyl)isobutyramide]
 |  |  |  | 227 to 229 |  | 0 to 25 | 0 to 25 |  |  |  |  | CC(C)Oc1ccc(-c2nn(C(C)c3oc4cccc(N5CCOCC5)c4c(=O)c3-c3cccc(F)c3)c3ncnc(N)c23)cc1F (stereo not shown) [Example 120, 2-(1-(4-amino-3-(3-fluoro-4-isopropoxyphenyl)-1H-pyrazolo[3,4-d]pyrimidin-1-yl)ethyl)-3-(3-fluorophenyl)-5-morpholino-4H-chromen-4-one]
